28 compounds from patent publication US10906915B2, “Substituted pyrazoloazepin-4-ones and their use as phosphodiesterase inhibitors” (LEO Pharma A/S, priority 2016, dated 2021) can be followed below.

For the assay, the target named is human PDE4D catalytic domain (UniProt no. Q08499) (Homo sapiens (Human), UniProt Q08499). As to the kind of experiment: PDE4 assay (TR-FRET, FAM-cAMP cleavage). The class given is biochemical. The following applies: human PDE4D catalytic domain; molar concentration giving 50% inhibition of substrate cleavage; read-out: PDE4 IC50 range. The procedure, abridged: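 Read-out is time-resolved FRET from Tb donor to FAM-AMP captured on trivalent-metal nanoparticles added to stop the reaction. Substrate was a mix of plain and FAM-labelled cAMP, cleaved by human PDE4D catalytic domain ([…]) with titrated compound; IC50 ranges (nM) versus controls.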
human PDE4D catalytic domain, sequence (Q08499 380-740 limits assumed): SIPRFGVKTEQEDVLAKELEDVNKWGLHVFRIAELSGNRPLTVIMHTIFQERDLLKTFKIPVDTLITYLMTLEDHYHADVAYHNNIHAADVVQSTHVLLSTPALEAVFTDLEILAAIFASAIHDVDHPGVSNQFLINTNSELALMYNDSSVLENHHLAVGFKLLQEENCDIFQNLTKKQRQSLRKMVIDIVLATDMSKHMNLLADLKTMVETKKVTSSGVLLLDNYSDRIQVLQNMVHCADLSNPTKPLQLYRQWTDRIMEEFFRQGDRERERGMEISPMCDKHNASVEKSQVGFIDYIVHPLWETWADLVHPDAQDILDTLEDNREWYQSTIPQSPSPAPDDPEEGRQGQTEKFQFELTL
On the technique in general: TR-FRET usually uses a lanthanide donor and a delayed reading to cut background.
For `CCc1nn(CCCOC(=O)c2ccc(C)c(C(F)(F)F)c2)c2c1C(=O)NCC1(CCOCC1)C2` [Example 103, 3-(3-ethyl-4-oxo-spiro[6,8-dihydro-5H-pyrazolo[4,3-c]azepine-7,4′-tetrahydropyran]-1-yl)propyl 4-methyl-3-(trifluoromethyl)benzoate], the IC50 was less than 0.1 µM. The result for `CCc1nn(CCCOC(=O)c2cccc(C(F)(F)F)c2C)c2c1C(=O)NCC1(CCOCC1)C2` [Example 104, 3-(3-ethyl-4-oxo-spiro[6,8-dihydro-5H-pyrazolo[4,3-c]azepine-7,4′-tetrahydropyran]-1-yl)propyl 2-methyl-3-(trifluoromethyl)benzoate] reads less than 0.1 µM. `CCc1nn(CCCOC(=O)c2cc(C(F)(F)F)ccc2C)c2c1C(=O)NCC1(CCOCC1)C2` [Example 105, 3-(3-ethyl-4-oxo-spiro[6,8-dihydro-5H-pyrazolo[4,3-c]azepine-7,4′-tetrahydropyran]-1-yl)propyl 2-methyl-5-(trifluoromethyl)benzoate]: the concentration for half-maximal inhibition (IC50) was less than 0.1 µM. Consider `CCc1nn(CCCOC(=O)c2cccc(F)c2C(F)(F)F)c2c1C(=O)NCC1(CCOCC1)C2` [Example 106, 3-(3-ethyl-4-oxo-spiro[6,8-dihydro-5H-pyrazolo[4,3-c]azepine-7,4′-tetrahydropyran]-1-yl)propyl 3-fluoro-2-(trifluoromethyl)benzoate], for which the IC50 is less than 0.1 µM.

Regarding `CCc1nn(CCCOC(=O)c2c(F)cccc2C(F)(F)F)c2c1C(=O)NCC1(CCOCC1)C2` [Example 107, 3-(3-ethyl-4-oxo-spiro[6,8-dihydro-5H-pyrazolo[4,3-c]azepine-7,4′-tetrahydropyran]-1-yl)propyl 2-fluoro-6-(trifluoromethyl)benzoate], the 50% inhibitory concentration (IC50) was less than 0.1 µM. On to `CCc1nn(CCCOC(=O)c2cc(F)cc(C(F)(F)F)c2)c2c1C(=O)NCC1(CCOCC1)C2` [Example 108, 3-(3-ethyl-4-oxo-spiro[6,8-dihydro-5H-pyrazolo[4,3-c]azepine-7,4′-tetrahydropyran]-1-yl)propyl 3-fluoro-5-(trifluoromethyl)benzoate], for which the IC50 is less than 0.1 µM.

As to `CCc1nn(CCCOC(=O)c2ccc(F)cc2C(F)(F)F)c2c1C(=O)NCC1(CCOCC1)C2` [Example 109, 3-(3-ethyl-4-oxo-spiro[6,8-dihydro-5H-pyrazolo[4,3-c]azepine-7,4′-tetrahydropyran]-1-yl)propyl 4-fluoro-2-(trifluoromethyl)benzoate], the IC50 is less than 0.1 µM. Consider `CCc1nn(CCCOC(=O)c2ccc(C(F)(F)F)c(F)c2)c2c1C(=O)NCC1(CCOCC1)C2` [Example 110, 3-(3-ethyl-4-oxo-spiro[6,8-dihydro-5H-pyrazolo[4,3-c]azepine-7,4′-tetrahydropyran]-1-yl)propyl 3-fluoro-4-(trifluoromethyl)benzoate], for which the IC50 was less than 0.1 µM. For the compound `CCc1nn(CCCOC(=O)c2ccc(F)c(C(F)(F)F)c2)c2c1C(=O)NCC1(CCOCC1)C2` [Example 111, 3-(3-ethyl-4-oxo-spiro[6,8-dihydro-5H-pyrazolo[4,3-c]azepine-7,4′-tetrahydropyran]-1-yl)propyl 4-fluoro-3-(trifluoromethyl)benzoate], the 50% inhibitory concentration (IC50) is less than 0.1 µM.

As to `CCc1nn(CCCOC(=O)c2cc(C(F)(F)F)ccc2F)c2c1C(=O)NCC1(CCOCC1)C2` [Example 112, 3-(3-ethyl-4-oxo-spiro[6,8-dihydro-5H-pyrazolo[4,3-c]azepine-7,4′-tetrahydropyran]-1-yl)propyl 2-fluoro-5-(trifluoromethyl)benzoate], the IC50 was less than 0.1 µM. The result for `CCc1nn(CCCOC(=O)c2ccc(C(F)(F)F)cc2F)c2c1C(=O)NCC1(CCOCC1)C2` [Example 113, 3-(3-ethyl-4-oxo-spiro[6,8-dihydro-5H-pyrazolo[4,3-c]azepine-7,4′-tetrahydropyran]-1-yl)propyl 2-fluoro-4-(trifluoromethyl)benzoate] reads less than 0.1 µM. For the compound `CCc1nn(CCCOC(=O)c2cccc(S(=O)(=O)CC)c2)c2c1C(=O)NCC1(CCOCC1)C2` [Example 114, 3-(3-ethyl-4-oxo-spiro[6,8-dihydro-5H-pyrazolo[4,3-c]azepine-7,4′-tetrahydropyran]-1-yl)propyl 3-ethylsulfonylbenzoate], the IC50 is less than 0.1 µM. Consider `CCc1nn(CCCOC(=O)c2ccc(S(=O)(=O)CC)cc2)c2c1C(=O)NCC1(CCOCC1)C2` [Example 115, 3-(3-ethyl-4-oxo-spiro[6,8-dihydro-5H-pyrazolo[4,3-c]azepine-7,4′-tetrahydropyran]-1-yl)propyl 4-ethylsulfonylbenzoate], for which the IC50 is less than 0.1 µM. Consider `CCc1nn(CCCOC(=O)c2cccc(S(=O)(=O)NC)c2)c2c1C(=O)NCC1(CCOCC1)C2` [Example 116, 3-(3-ethyl-4-oxo-spiro[6,8-dihydro-5H-pyrazolo[4,3-c]azepine-7,4′-tetrahydropyran]-1-yl)propyl 3-(methylsulfamoyl) benzoate], for which the IC50 is less than 0.1 µM. As to `CCc1nn(CCCOC(=O)c2ccc(S(=O)(=O)NC)cc2)c2c1C(=O)NCC1(CCOCC1)C2` [Example 117, 3-(3-ethyl-4-oxo-spiro[6,8-dihydro-5H-pyrazolo[4,3-c]azepine-7,4′-tetrahydropyran]-1-yl)propyl 4-(methylsulfamoyl) benzoate], the IC50 was less than 0.1 µM. As for `CCc1nn(CCCOC(=O)c2ccc(OC)c(C(F)(F)F)c2)c2c1C(=O)NCC1(CCOCC1)C2` [Example 118, 3-(3-ethyl-4-oxo-spiro[6,8-dihydro-5H-pyrazolo[4,3-c]azepine-7,4′-tetrahydropyran]-1-yl)propyI 4-methoxy-3-(trifluoromethyl)benzoate], the concentration for half-maximal inhibition (IC50) is less than 0.1 µM.

As to `CCc1nn(CCCOC(=O)c2cc(OC)ccc2C(F)(F)F)c2c1C(=O)NCC1(CCOCC1)C2` [Example 119, 3-(3-ethyl-4-oxo-spiro[6,8-dihydro-5H-pyrazolo[4,3-c]azepine-7,4′-tetrahydropyran]-1-yl)propyl 5-methoxy-2-(trifluoromethyl)benzoate], the IC50 was less than 0.1 µM.

Consider `CCc1nn(CCCOC(=O)c2cc(OC)cc(C(F)(F)F)c2)c2c1C(=O)NCC1(CCOCC1)C2` [Example 120, 3-(3-ethyl-4-oxo-spiro[6,8-dihydro-5H-pyrazolo[4,3-c]azepine-7,4′-tetrahydropyran]-1-yl)propyl 3-methoxy-5-(trifluoromethyl)benzoate], for which the IC50 was less than 0.1 µM. `CCc1nn(CCCOC(=O)c2ccc(Cl)cc2C(F)(F)F)c2c1C(=O)NCC1(CCOCC1)C2` [Example 121, 3-(3-ethyl-4-oxo-spiro[6,8-dihydro-5H-pyrazolo[4,3-c]azepine-7,4′-tetrahydropyran]-1-yl)propyl 4-chloro-2-(trifluoromethyl)benzoate]: the half-maximal inhibitory concentration (IC50) is less than 0.1 µM. For the compound `CCc1nn(CCCOC(=O)c2ccc(Cl)c(C(F)(F)F)c2)c2c1C(=O)NCC1(CCOCC1)C2` [Example 122, 3-(3-ethyl-4-oxo-spiro[6,8-dihydro-5H-pyrazolo[4,3-c]azepine-7,4′-tetrahydropyran]-1-yl)propyl 4-chloro-3-(trifluoromethyl)benzoate], the IC50 was less than 0.1 µM. Take `CCc1nn(CCCOC(=O)c2cccc(C(F)(F)F)c2Cl)c2c1C(=O)NCC1(CCOCC1)C2` [Example 123, 3-(3-ethyl-4-oxo-spiro[6,8-dihydro-5H-pyrazolo[4,3-c]azepine-7,4′-tetrahydropyran]-1-yl)propyl 2-chloro-3-(trifluoromethyl)benzoate]: the IC50 was less than 0.1 µM.

`CCc1nn(CCCOC(=O)c2cc(Cl)ccc2C(F)(F)F)c2c1C(=O)NCC1(CCOCC1)C2` [Example 124, 3-(3-ethyl-4-oxo-spiro[6,8-dihydro-5H-pyrazolo[4,3-c]azepine-7,4′-tetrahydropyran]-1-yl)propyl 5-chloro-2-(trifluoromethyl)benzoate]: the IC50 is less than 0.1 µM. As to `CCc1nn(CCCOC(=O)c2ccc(C(F)(F)F)c(Cl)c2)c2c1C(=O)NCC1(CCOCC1)C2` [Example 125, 3-(3-ethyl-4-oxo-spiro[6,8-dihydro-5H-pyrazolo[4,3-c]azepine-7,4′-tetrahydropyran]-1-yl)propyl 3-chloro-4-(trifluoromethyl)benzoate], the IC50 is less than 0.1 µM. For the compound `CCc1nn(CCCOC(=O)c2ccc(C(F)(F)F)cc2Cl)c2c1C(=O)NCC1(CCOCC1)C2` [Example 126, 3-(3-ethyl-4-oxo-spiro[6,8-dihydro-5H-pyrazolo[4,3-c]azepine-7,4′-tetrahydropyran]-1-yl)propyl 2-chloro-4-(trifluoromethyl)benzoate], the half-maximal inhibitory concentration (IC50) is less than 0.1 µM.

Consider `CCc1nn(CCCOC(=O)c2cc(Cl)cc(C(F)(F)F)c2)c2c1C(=O)NCC1(CCOCC1)C2` [Example 127, 3-(3-ethyl-4-oxo-spiro[6,8-dihydro-5H-pyrazolo[4,3-c]azepine-7,4′-tetrahydropyran]-1-yl)propyl 3-chloro-5-(trifluoromethyl)benzoate], for which the IC50 was less than 0.1 µM. `CCc1nn(CCCOC(=O)c2cc(C(F)(F)F)ccc2Cl)c2c1C(=O)NCC1(CCOCC1)C2` [Example 128, 3-(3-ethyl-4-oxo-spiro[6,8-dihydro-5H-pyrazolo[4,3-c]azepine-7,4′-tetrahydropyran]-1-yl)propyl 2-chloro-5-(trifluoromethyl)benzoate]: the IC50 is less than 0.1 µM. As for `CCc1nn(CCCOC(=O)c2cccc(S(=O)(=O)C(C)C)c2)c2c1C(=O)NCC1(CCOCC1)C2` [Example 129, 3-(3-ethyl-4-oxo-spiro[6,8-dihydro-5H-pyrazolo[4,3-c]azepine-7,4′-tetrahydropyran]-1-yl)propyl 3-isopropylsulfonylbenzoate], the IC50 was less than 0.1 µM. For the compound `CCc1nn(CCCOC(=O)c2ccc(S(=O)(=O)C(C)C)cc2)c2c1C(=O)NCC1(CCOCC1)C2` [Example 130, 3-(3-ethyl-4-oxo-spiro[6,8-dihydro-5H-pyrazolo[4,3-c]azepine-7,4′-tetrahydropyran]-1-yl)propyl 4-isopropylsulfonylbenzoate], the IC50 was less than 0.1 µM.

The IC50 is the midpoint of a concentration-inhibition curve.
